From a melting point compilation (Tetko et al.; mined from patent text by program, amines drawn as free bases though some values may be those of a salt)

SMILES	melting point
Cc1nn2c(-c3cccc(NC(=O)OC(C)C)c3)ccnc2c1C(=O)c1cccs1	186 to 188 °C
N#CNC(=N)Nc1cc(Cl)cc(Cl)c1	196 to 198 °C
CCOC1OC(O)C(F)(F)C(F)(F)C1(F)F (configuration not stated)	84 to 86 °C
CN1CCN(CCCc2c[nH]c(-c3ccc(F)cc3)c2-c2ccncc2)CC1	190 to 192 °C
O=C(CC(Cc1cccc2ccccc12)C(=O)N[C@@H](Cc1c[nH]cn1)C(=O)N[C@H](CO)Cc1ccccc1)NCCc1ccccc1 (some centres not stated)	106 to 109 °C
CCCCCC(=O)Nc1ccc(NNC(=O)N(C)c2cccc3c2C(=O)N(C)C3=O)cc1	115 to 118 °C
CCCCCCCCCCCCCCCCCCOc1cccc(N(CC(=O)OC)CC(=O)OC)c1	75 to 77 °C
Cc1oc(-c2ccco2)nc1COc1ccc(COc2nn(-c3ccccc3)cc2/C=C/C(=O)O)cc1	144 to 145 °C
Cc1nc(-n2cc(-c3ccccn3)nn2)sc1C(=O)NCc1ccccc1	184 to 187 °C
CCOC(=O)c1cn(-c2cccs2)c2c(F)c(F)c(F)c(C)c2c1=O	198 to 200 °C
O=C(NOCC(=O)N1CCCC1C(=O)O)NN1CCCC1C(=O)O (configuration not stated)	157 to 160 °C
Cc1nc2sccn2c(=O)c1CCN1CCC(=C(c2ccc(F)cc2)c2ccc(F)cc2)CC1	146 °C
CCC(C)C(C#N)NCC(O)c1ccccc1 (configuration not stated)	106 to 108 °C
CCCN(CCC)c1c([N+](=O)[O-])cc(C#N)c(C)c1[N+](=O)[O-]	97 to 99 °C
O=C1C=C(NCc2ccccc2I)CCN1	163 to 164 °C
CC(C)(C)c1cc(OCc2n[nH]c(=S)o2)cc(C(C)(C)C)c1O	195 to 196 °C
O=C(O)c1sccc1C(F)F	119 to 120 °C
Cc1cc(OC(=O)C(C)(C)C)cc(C)c1O	92 to 94 °C
CNc1ncnc2c(NC3OC(CO)C(O)C3O)ncnc12 (configuration not stated)	230 °C
C[C@H]1[C@@H](O)CC(=O)N1c1ccc(C#N)c(Cl)c1	161 to 162 °C
C=CCCc1ccc(C(N)=O)c(O)n1	195 to 198 °C
CC(C)C(NC(=O)N(C)Cc1ccccn1)C(=O)NC(Cc1ccccc1)C(O)C(Cc1ccccc1)NC(=O)C(NC(=O)N(C)Cc1ccccn1)C(C)C (configuration not stated)	70 to 72 °C
Cn1cnc(COc2nn3c(-c4ccccc4)nnc3cc2-c2ccccc2)c1	199 to 202 °C
CSc1cc(C(C)(C)C)nn1C(=O)Cl	64 to 66 °C
Nc1ccc(-c2ccc(C(=O)NC3CN4CCC3CC4)o2)cc1 (configuration not stated)	103 to 113 °C

SMILES	melting point
N#Cc1ccc(Cn2cc(C=CC=O)nn2)cc1	152 to 155 °C
O=C1NOCCN1c1ccc(Cl)c(Cl)c1	152 °C
CSC(=S)Nc1ccccc1N	114 °C
NS(=O)(=O)N1CCC(CCNC(=O)c2cc(Cl)ccn2)CC1	186 to 187 °C
COc1ccc(N2CCN(c3c(C)c(C)c4c(c3C)CC(C)(CN(Cc3ccccc3)Cc3ccccc3)O4)CC2)cc1 (configuration not stated)	168 to 170 °C
NC(=O)OCc1ccc(CNC(=O)[C@@H](CCCNC(N)=N[N+](=O)[O-])NC(=O)C(c2ccccc2)c2ccccc2)cc1	130 to 132 °C
c1ccc(OCCSCc2nnc(-c3ccc(OCCCN4CCC4)cc3)o2)cc1	60 °C
CCCCCC(O)(CC#N)c1ccc(OC)cc1 (configuration not stated)	45 to 47 °C
COc1ncc(NC(N)=S)c(OC)n1	175 °C
COc1cc(C(F)(F)F)cc(OC)n1	26 to 27 °C
CC(C)c1cc(-c2ccc(F)cc2)n(-c2ccccn2)n1	80 to 81 °C
O=C1c2cccc3cc4ccccc4c(c23)C(=O)N1CCN1CCCN(CCN2C(=O)c3cccc4cc5ccccc5c(c34)C2=O)C1	222 °C
COc1cc(CBr)c(OC)c(CCc2cc(OC)cc(CBr)c2OC)c1	158 to 161 °C
CCc1cc2c(s1)N=C(NNC(=O)NC)CN=C2c1ccccc1Cl	213 to 215 °C
CCOCc1nc2c(N(Cc3ccccc3)Cc3ccccc3)nc(C)cc2n1NC(=O)OC(C)(C)C	139 to 141 °C
CCc1c(C)nc2cccc(C)n2c1=O	127 to 128 °C
CNC(=S)NCCCSc1nccs1	67 to 68 °C
COc1cc(COc2nn(-c3ccccc3)cc2-c2cnco2)ccc1OCc1nc(-c2ccco2)oc1C	153 to 154 °C
Nc1ccc(O)c(CSCCO)c1	121 °C
Cc1cc(=O)c2[nH]nc(C)c2[nH]1	> 346 °C
NC1=NS(=O)(=O)N=C1NCCCN(Cc1ccccc1)c1ccccn1	192 to 193 °C
CCCc1nc2c(N)nc3cccnc3c2n1CC1(O)CCOC1 (configuration not stated)	171 to 173 °C
N#CNc1nc2ccccc2o1	175 °C
c1ccc(Cn2cncc2-c2cnc(-c3ccccc3)nc2)cc1	140 °C

Other lines, results leading:

melting point	SMILES
218 to 221 °C	N#Cc1cc2c(cc1O)OCC21C(=O)N(CC2CCCO2)c2ccccc21 (configuration not stated)
111 to 112 °C	CNS(=O)(=O)c1cc(OC)c(OC)c(C(=O)NCC2CCCN2C)c1 (configuration not stated)
201 to 204 °C	COc1ccc(C(=O)[C@H]2CC=CC[C@H]2C(=O)O)cc1Br (relative stereo)
184 to 186 °C	CCOC(=O)c1cc2c(=O)n(CC)c3ccccc3n2c1
275 to 276 °C	CC1=C(C(=O)N2CCCCC2)C(c2ccccc2[N+](=O)[O-])C(S(C)(=O)=O)=C(C)N1 (configuration not stated)
132 °C	CCCC(c1ccc(C(N)=O)cc1)n1ccnc1 (configuration not stated)
132 to 133 °C	O=C(O)c1ccccc1OCCCc1cc(-c2ccc(C(F)(F)F)cc2)no1
174 to 176 °C	CC(=O)N[C@@H]1CCCC[C@H]1NS(=O)(=O)c1ccc(C)cc1 (relative stereo)
174 to 178 °C	CN1C(=O)CN(c2cccc(C#N)c2)NC1=O
106 °C	CC(O)(c1ccccc1)c1cc(Cl)ccc1O (configuration not stated)
228 to 230 °C	O=C(O)c1cn(-c2ccncc2F)c2nc(Cl)c(F)cc2c1=O
176 to 180 °C	CCOC(=O)c1cn(-c2nc(N)c(F)cc2F)c2c(F)c(F)c(F)c(NCc3ccccc3)c2c1=O
166 to 169 °C	CC(=O)NC[C@H]1CN(c2ccc(C3=CCN(C(=O)OCc4ccccc4)CC3)cc2)C(=O)O1
255 to 257 °C	O=C(O)c1oc2cc(O)ccc2c(=O)c1C(=O)O
118 to 120 °C	COc1ccc(-c2nc(CN(C)C)nc3sc(C)c(C)c23)cc1OC
174 to 175 °C	Cc1ccc(C(=S)c2ccc3n2CCCC3C(=O)O)cc1 (configuration not stated)
100 to 102 °C	CCOC(=O)CNc1c(C#N)cnn1-c1ccc(C(F)(F)F)cc1Cl
161 °C	CC(C)CCCC(C)C1CCC2C3=CC=C4CC(OC(=O)c5ccccc5)CC(OC(=O)c5ccccc5)C4(C)C3CCC21C (configuration not stated)
198 to 200 °C	COC(=O)C1=CC=C(CC2=CCc3ccc(NC(=O)C(F)(F)F)cc32)C(OC)(OC)C1
192 to 194 °C	CCCc1nc2c(N)nc3ccccc3c2n1OCC(N)=O
60 to 61.5 °C	Cc1cccc2c1CCN=C2c1ccc(Br)cc1
145 to 155 °C	COC(=O)C1=C(C)NC(CC(=O)N2CCN(C3CC4CC(=O)CC4C3)CC2)=C(C(=O)OC)C1c1c(Cl)cccc1Cl (configuration not stated)
103 to 104 °C	COC(=O)N(N=C(C)C)C(=O)c1ccc(Br)cc1
122 to 124 °C	COc1ccc([C@@H]2CN(C)CC[C@@H]2NC(=O)c2cccc(C(F)(F)F)c2)cc1OC (relative stereo)
228 °C	CCOC(=O)C1=C(C)Nc2n[nH]cc2C1c1cccc2nonc12 (configuration not stated)
179 to 180 °C	C#CCc1c(C)nc2c(OCc3c(C)cccc3NC(=O)OC)cccn12
89 to 93 °C	Cc1[nH]c2cc(OCc3ccccc3)ccc2c1C(=O)C1CSC(c2cccnc2)N1 (configuration not stated)

melting point	SMILES
130 to 131 °C	COC(OC)c1cccc(-c2ccc(C(=O)O)cc2)c1
159 to 165 °C	COC(=O)CCc1ccc(NC(=O)NNC(C)=O)cc1
212 to 213 °C	CCCCNC(=O)Nc1c(N)cccc1C(=O)NCC1CCN(C(c2ccccc2)c2ccccc2)CC1
142 to 145 °C	Cc1cc(C(=O)Nc2ccccc2O)cc(C)c1O
173 to 174 °C	COc1cc2ncnc(N3CCC(CN4C=CC=NS4(=O)=O)CC3)c2cc1OC
129 to 131 °C	CSc1ccc(NC(=N)c2ccccc2)cc1
303 to 304 °C	COc1ccc2[nH]cc(-c3cc4c(C#N)ccnc4[nH]3)c2c1
44 to 46 °C	COC(=O)c1cc(CN=[N+]=[N-])cc([N+](=O)[O-])c1
143 to 145 °C	C#CCOc1ccccc1S(N)(=O)=O
36.7 to 39.4 °C	COCC(=O)c1c(Cl)ccc(F)c1Cl
146 °C	Cc1ncn(Nc2cccc(Cl)c2)c1C
204 °C	CCCN(C)CC(C)N1c2ccccc2Sc2ccc(C(N)=S)cc21 (racemic)
159 to 162 °C	O=C(C(=Cc1cc(O)c(O)c([N+](=O)[O-])c1)C(=O)C1CC1)C1CC1
210 to 212 °C	CC(=O)N1CCc2c(c(=O)c3cccnc3n2-c2ccccc2)C1
152 to 153 °C	O=C1CSCC(C(=O)O)N1 (configuration not stated)
121 to 122 °C	O=c1ccoc(C(O)c2ccccc2)c1OCc1ccccc1 (configuration not stated)
136 to 140 °C	CSc1c(CC(=O)O)n(Cc2ccc(Cl)cc2)c2ccc(CF)cc12
145 °C	O=C(CC(O)c1ccccc1)NCc1ccccc1[N+](=O)[O-] (configuration not stated)
145 to 147 °C	CCOc1ccc(C(=O)NCc2ccc3c(c2)C(=O)N(C2(C)CCC(=O)NC2=O)C3=O)nc1 (configuration not stated)
268 to 273 °C	COc1ccc(N2C(=O)N(c3cccc(C(N)=O)c3)c3nc(Nc4ccccc4)ncc3C2C)cc1 (configuration not stated)
74 to 76 °C	CC(=O)CCCCCCCCc1ccc(O)c(O)c1
69 to 71 °C	CCOC(=O)C(C)Oc1ncn(-c2ccc(C)cc2)n1 (configuration not stated)
188 to 189 °C	CCOC(=O)NNC=Nc1nc(-c2ccc(C3CCCCC3)cc2)cs1
81 to 82.5 °C	CCN(CC)C(=O)c1c(CO)cccc1[Si](C)(C)C
250 °C	O=C(Nc1ccccc1O)c1ccc(CS(=O)(=O)c2ccc(O)cc2)cc1
147 to 151 °C	CC(NC(=O)OC(C)(C)C)C(=O)NC(C)C(=O)Nc1ccc2c(Cl)c(OCCBr)oc(=O)c2c1 (configuration not stated)
